Results on 13 molecules are retold here after US7235674B2, “Substituted coumarins and quinolines and analogs as activators of caspases and inducers of apoptosis and the use thereof” (Cytovia, Inc., priority 2001, dated 2007).

The subject of test [1] is Human breast cancer cell line ZR-75-1. As to the kind of experiment: Caspase cascade activation assay (N-(Ac-DEVD)-N'-ethoxycarbonyl-R110 fluorogenic substrate) in ZR-75-1 cells. It is filed as cell-based. To be noted: for EC50 / maximal fold induction: Homo sapiens; for Caspase activity (Ratio) ZR-75-1: ratio of net RFU of test compound to control, 3 h substrate reading; for maximal fold induction: ZR-75-1, 24 h, read-out: Max efficacy ZR751. As to the method:
(§1) Human breast cancer cell lines T-47D and ZR-75-1 were grown according to media component mixtures designated by American Type Culture Collection +10% FCS (Invitrogen Corporation), in a 5% CO2 −95% humidity incubator at 37° C. T-47D and ZR-75-1 cells were maintained at a cell density between 30 and 80% confluency at a cell density of 0.1 to 0.6×10^6 cells/mL. Cells were harvested at 600×g and resuspended at 0.65×10^6 cells/mL into appropriate media +10% FCS. An aliquot of 45 μl of cells was added to a well of a 96-well microtiter plate containing 5 μl of a 10% DMSO in RPMI-1640 media solution containing 0.16 to 10 μM of 3-cyano-7-methoxy-4-(3-bromo-4,5-dimethoxyphenyl)-2-oxo-2H-chromene (Example 1) or other test compound (0.016 to 1 μM final). An aliquot of 45 μl of cells was added to a well of a 96-well microtiter plate containing 5 μl of a 10% DMSO in RPMI-1640 media solution without test compound as the control sample. The samples were mixed by agitation and then incubated at 37° C. for 24 h in a 5% CO2 −95% humidity incubator. After incubation, the samples were removed from the incubator and 50 μl of a solution containing 20 μM of N-(Ac-DEVD)-N′-ethoxycarbonyl-R110 fluorogenic substrate (SEQ ID NO:1) (Cytovia, Inc.; WO99/18856), 20% sucrose (Sigma), 20 mM DTT (Sigma), 200 mM NaCl (Sigma), 40 mM Na PIPES buffer pH 7.2 (Sigma), and 500 μg/ml lysolecithin (Calbiochem) was added. The samples were mixed by agitation and incubated at room temperature. Using a fluorescent plate reader (Model 1420 Wallac Instruments), an initial reading (T=0) was made approximately 1-2 min after addition of the substrate solution, employing excitation at 485 nm and emission at 530 nm, to determine the background fluorescence of the control sample. After the 3 h incubation, the samples were read for fluorescence as above (T=3 h).
(§2) The Relative Fluorescence Unit values (RFU) were used to calculate the sample readings as follows: RFU(T=3 h)−Control RFU(T=0)=Net RFU(T=3 h)
(§3) The activity of caspase cascade activation was determined by the ratio of the net RFU value for 3-cyano-7-methoxy-4-(3-bromo-4,5-dimethoxy-phenyl)-2-oxo-2H-chromene, or other test compound, to that of control samples. The EC50 (nM) was determined by a sigmoidal dose-response calculation (Prism 2.0, GraphPad Software Inc.).

Test [2] concerns Human breast cancer cell line T-47D. The experiment in a line: Caspase cascade activation assay (N-(Ac-DEVD)-N'-ethoxycarbonyl-R110 fluorogenic substrate) in T-47D cells. The note with it: for Caspase activity (Ratio) T-47D: ratio of net RFU of test compound to control, 3 h substrate reading. The class given is cell-based. The protocol:
as §1, §2, §3

[3] abbreviates: caspase cascade activation potency, ZR-75-1 cells, 24 h incubation.
[4] abbreviates: Homo sapiens, T47D, caspase cascade activation potency, T-47D cells, 24 h incubation.
The mark [5] stands for this setting: commercial fused-pyridine compounds, ZR751 cells.
Setting [6] is: ZR-75-1, commercial fused-pyridine compounds, ZR751 cells.
Where [7] appears, read: commercial fused-pyridine compounds, T47D cells.

Structures are written as SMILES.

The EC50 is the concentration needed to bring the measured effect to its halfway point. A low value points to an effect from little substance. Consider `Cn1ccc2c3oc(=O)c(C#N)c(-c4cccc([N+](=O)[O-])c4)c3ccc21` [Example 38, 3-Cyano-7-methyl-4-(3-nitro-phenyl)-2-oxo-2H-pyrrolo[2,3-h]chromene], for which the values for the EC50 in test [1] (setting [3]) and in test [2] (setting [4]) were 22 nM and above 100 nM, respectively. In addition, in test [1] (ZR-75-1 cells, 24 h incubation), the “Caspase activity (Ratio) ZR-75-1” value is 5.0. Moreover, in test [2] (T-47D cells, 24 h incubation), the “Caspase activity (Ratio) T-47D” value came to 1.8.
Take `COc1cc(OC)cc(-c2c(C#N)c(=O)oc3c2ccc2c3ccn2C)c1` [Example 39, 3-Cyano-4-(3,5-dimethoxy-phenyl)-7-methyl-2-oxo-2H-pyrrolo[2,3-h]chromene]: the EC50 in test [1] (setting [3]) is 20 nM; in test [2] (setting [4]) it was above 100 nM. In addition, in test [1] (ZR-75-1 cells, 24 h incubation), the “Caspase activity (Ratio) ZR-75-1” value stood at 5.2. For the same molecule, the “Caspase activity (Ratio) T-47D” value in test [2] (T-47D cells, 24 h incubation) amounted to 1.9.
As for `COc1cc(-c2c(C#N)c(=O)oc3c2ccc2c3ccn2C)cc2c1OCO2` [Example 40, 3-Cyano-4-(3-methoxy-4,5-methylenedioxyphenyl)-7-methyl-2-oxo-2H-pyrrolo[2,3-h]chromene], the concentration giving a half-maximal response (EC50) in test [1] (setting [3]) is 24 nM; in test [2] (setting [4]) it was above 100 nM. For the same molecule, in test [1] (ZR-75-1 cells, 24 h incubation), the “Caspase activity (Ratio) ZR-75-1” value was 4.9. Also, the “Caspase activity (Ratio) T-47D” value in test [2] (T-47D cells, 24 h incubation) came out at 1.7.
For `COc1cccc(-c2c(C#N)c(=O)oc3c2ccc2c3ccn2C)c1` [Example 41, 3-Cyano-4-(3-methoxy-phenyl)-7-methyl-2-oxo-2H-pyrrolo[2,3-h]chromene], the EC50 in test [1] (setting [3]) worked out at 22 nM; in test [2] (setting [4]), 55 nM. Moreover, the “Caspase activity (Ratio) ZR-75-1” value in test [1] (ZR-75-1 cells, 24 h incubation) was found to be 4.9. Besides, the “Caspase activity (Ratio) T-47D” value in test [2] (T-47D cells, 24 h incubation) was found to be 2.3.
As for `Cn1ccc2c3oc(=O)c(C#N)c(-c4cccc(Br)c4)c3ccc21` [Example 42, 3-Cyano-4-(3-bromo-phenyl)-7-methyl-2-oxo-2H-pyrrolo[2,3-h]chromene], the EC50 worked out at 17 nM in test [1] (setting [3]) and 56 nM in test [2] (setting [4]). Besides, the “Caspase activity (Ratio) ZR-75-1” value in test [1] (ZR-75-1 cells, 24 h incubation) turned out to be 4.2. Moreover, in test [2] (T-47D cells, 24 h incubation), the “Caspase activity (Ratio) T-47D” value stood at 2.6.
Consider `COc1ccccc1-c1c(C#N)c(N)nc2c1CCc1ccccc1-2` [compound 44], for which the maximal fold induction was found to be 19.2 in test [1] (setting [5]) and 10.7 in test [2] (Homo sapiens, 24 h, commercial fused-pyridine compounds, T47D cells, read-out: Max efficacy T47D). Moreover, the EC50 in test [1] (setting [6]) stood at 2040 nM; in test [2] (Homo sapiens, commercial fused-pyridine compounds, T47D cells) it was 3120 nM.
In the case of `COc1ccc(-c2c(C#N)c(N)nc3c2CCc2ccccc2-3)cc1OC` [compound 45], in test [1] (setting [5]), the maximal fold induction was 7. Further, the EC50 in test [1] (setting [6]) stood at 571 nM. Also, in test [2] (setting [7]), the “EC50 (nM) T47D” value is recorded as “Inactive” and the “Max efficacy T47D” value is recorded as “Inactive”.
As for `N#Cc1c(N)nc2c(c1-c1cccs1)CCCC2` [compound 46], in test [1] (setting [5]), the maximal fold induction was found to be 3.1. In test [1] (setting [6]), this molecule displayed an EC50 of 3410 nM. In addition, in test [2] (setting [7]), the “EC50 (nM) T47D” value was “Inactive” and the “Max efficacy T47D” value is recorded as “Inactive”.
Regarding `N#Cc1c(N)nc2sc(C(N)=O)c(N)c2c1-c1ccc(Br)cc1` [compound 47], in test [1] (setting [5]), the maximal fold induction is 2.7. Also, the EC50 in test [1] (setting [6]) is 6110 nM. Moreover, in test [2] (setting [7]), the “EC50 (nM) T47D” value is recorded as “Inactive” and the “Max efficacy T47D” value is given as “Inactive”.
For `C=CCNc1nc2nc(N)c(C#N)c(-c3ccc(Br)cc3)c2s1` [compound 48], the maximal fold induction in test [1] (setting [5]) came to 2.9. The molecule further yielded an EC50 in test [1] (setting [6]) of 6040 nM. Besides, in test [2] (setting [7]), the “EC50 (nM) T47D” value is on record as “Inactive” and the “Max efficacy T47D” value is given as “Inactive”.
`COc1ccc(-c2c(C#N)c(N)nc3c2CCCC3C)cc1` (stereo not shown) [compound 49]: the maximal fold induction in test [1] (setting [5]) came out at 4.8. The molecule also registered an EC50 in test [1] (setting [6]) of 5710 nM. Further, in test [2] (setting [7]), the “EC50 (nM) T47D” value was “Inactive” and the “Max efficacy T47D” value is “Inactive”.
Regarding `COc1ccc(-c2c(C#N)c(N)nc3c2CN(C)CC3)cc1OC` [compound 50], the maximal fold induction in test [1] (setting [5]) was found to be 2.4. Moreover, the EC50 in test [1] (setting [6]) worked out at 576 nM. In addition, in test [2] (setting [7]), the “EC50 (nM) T47D” value was “Inactive” and the “Max efficacy T47D” value is given as “Inactive”.
As for `N#Cc1c(N)nc2[nH]c(=S)[nH]c(=O)c2c1-c1ccc(Cl)cc1` [compound 51], in test [1] (setting [5]), the maximal fold induction came out at 2.8. Besides, the EC50 in test [1] (setting [6]) stood at 5380 nM. In addition, in test [2] (setting [7]), the “EC50 (nM) T47D” value is recorded as “Inactive” and the “Max efficacy T47D” value is listed as “Inactive”.
